Here are results for 33 molecules from US9073835B2, “N-acylthiourea and N-acylurea inhibitors of the Hedgehog protein signalling pathway” (Centre National De La Recherche Scientifique, priority 2008, dated 2015).

In the test the test system is Hedgehog protein signaling pathway. The experiment in a line: Inhibition of SAG-induced alkaline phosphatase activity (differentiation) in C3H10T1/2 cells. In kind it is cell-based. The conditions noted are these: Mus musculus; for inhibition at 10 µM: C3H 10T1/2, 10 μM test compound, percentage of alkaline phosphatase activity induced by SAG; for IC50: C3H 10T1/2, after induction by 0.1 μM SAG. On the procedure: The effect of compounds with formula (I) as claimed in the invention on inhibition of the Hedgehog protein signaling pathway was determined by analysis of differentiation in the pluripotent fibroblast cell line C3H10T1/2 after activation of this pathway in these cells using a synthetic activator: SAG.
The compounds with formula (I) to be tested were dissolved in dimethylsulfoxide to a concentration of 10 mM, then stored at a temperature of −20° C. until use.
The pluripotent fibroblast cell line C3H10T1/2 (ATCC) was cultivated under the conditions recommended by the ATCC. These cells were activated using 0.1 μM of SAG, employing the methods described by Chen et al., Proc. Natl. Acad. Sci. USA, 2002, 99, 14071 and Frank-Kamenetsky et al., J. Biol., 2002, 1, 10.
Activation with SAG provokes differentiation of the cell line and allows them to express alkaline phosphatase. It is then possible to measure the activity of the Hedgehog protein signaling pathway by measuring the alkaline phosphatase activity.
The C3H10T1/2 cells were plated onto 96-well plates at a density of […], 24 hours before addition of the test compounds in a concentration of 1 nM to 30 μM and in the presence of 0.1 μM of SAG using DMEM supplemented with 10% fetal calf serum as the culture medium. The tests were carried out in quadruplicate. The plates were then incubated for 5-6 days at a temperature of 37° C. in an atmosphere of 5% CO2. The cells were washed in a cold phosphate buffer (“Phosphate Buffer Serum”: PBS) then lysed by sonication at 4° C. in 50 μl of a solution containing 0.9% of NaCl and 0.2% of Triton X-100.
By way of comparison, the activity of a known inhibitor of the Hedgehog protein signaling pathway, CURIS 61 414, as described, for example, by Frank-Kamenetsky M. et al. (J. Biol., 2002, 1, 10), was tested under the same conditions as those used to test the various compounds with formula (I) as claimed in the invention.
The alkaline phosphatase activity measurement in the lysates obtained was then carried out using the method described by Pepinsky et al. (J. Biol. Chem., 1998, 273, 14037). After adding 100 μl of reaction buffer (200 mM Tris-HCl; pH 10.5; 0.4 M of 2-amino-2-methylpropanol and 8 mM of MgCl2) and 50 μl of substrate (4 mM of disodium p-nitrophenyl phosphate), the lysates were incubated at 37° C. for 30-60 min, then the optical density was read at a wavelength of 415 nm.

The term inhibition denotes the drop in the measured response relative to a control, in per cent. A higher inhibition goes with a strong effect. What is called IC50 is the concentration at which inhibition is half-maximal.

The structures appear in SMILES notation.

Regarding `COc1cc(C(=O)NC(=S)Nc2cccc(NC(=O)Nc3ccccc3)c2)cc(OC)c1OC` [Compound 51, 3,4,5-trimethoxy-N-(3-(3-phenylureido)phenylcarbamothioyl)-benzamide], the inhibition at 10 µM was > 80% and the half-maximal inhibitory concentration (IC50) fell in the range of 1 to 3 µM. In turn, `COc1cc(C(=O)NC(=S)Nc2cccc(NC(=O)c3ccco3)c2)cc(OC)c1OC` [Compound 14, N-[[[3-(2-furoylamino)phenyl]amino]thioxomethyl]-3,4,5-methoxy-benzamide] had an inhibition at 10 µM of 20 to 80%. The same measure, in the same setting: as for `COc1cc(C(=O)NC(=S)Nc2cc(Br)cc(C(=O)Nc3ccccc3)c2)cc(OC)c1OC` [Compound 41], the figure is 20 to 80%.

For the molecule `COc1cc(C(=O)NC(=S)Nc2cccc(-c3cn4ccccc4n3)c2)cc(OC)c1OC` [Compound 55, N-(3-(imidazo[1,2-a]pyridin-2-yl)phenylcarbamothioyl)-3,4,5-trimethoxybenzamide], the inhibition at 10 µM was > 80% and the IC50 lay in the range of 0.01 to 1 µM.

With `COc1cc(C(=O)NC(=S)Nc2ccc(Cl)c(C(=O)Nc3ccccc3)c2)cc(OC)c1OC` [Compound 25, N-[[[4-chloro-3-(phenylamino)carbonyl]amino]thioxomethyl]-3,4,5-methoxy-benzamide], the inhibition at 10 µM is > 80%. The molecule `COc1cc(C(=O)NC(=S)Nc2cccc(NC(=O)c3ccc(-c4ccccc4)cc3)c2C)cc(OC)c1OC` [Compound 46] gave an inhibition at 10 µM of 5 to 20%. With `COc1cc(C(=O)NC(=S)Nc2cccc(NC(=O)c3ccccc3)c2)cc2c1OCO2` [Compound 21, N-[[[3-(benzoylamino)phenyl]amino]thioxomethyl]-3,4-methylenedioxy-5-methoxy-benzamide], the inhibition at 10 µM was > 80% and the IC50 was 1 to 3 µM. For `COc1cc(C(=O)NC(=O)Nc2cccc(NC(=O)c3ccc(Cl)cc3)c2)cc(OC)c1OC` [Compound 47, N-[[[-3-(4-chloro-benzoylamino)phenyl]amino]oxomethyl]-3,4,5-methoxy-benzamide], the inhibition at 10 µM is > 80%. In the case of `COc1cc(C(=O)NC(=O)Nc2cccc(NC(=O)C(C)C)c2)cc(OC)c1OC` [Compound 17], the inhibition at 10 µM is > 80%.

With `COc1cc(C(=O)NC(=O)Nc2ccc(Cl)c(C(=O)Nc3ccccc3)c2)cc(OC)c1OC` [Compound 44], the inhibition at 10 µM is 20 to 80%. Same read-out and setting: as for `COc1cc(C(=O)NC(=S)Nc2cccc(NC(=O)c3ccc4ccccc4c3)c2)cc(OC)c1OC` [Compound 9, N-[[[3-(2-naphthoylamino)phenyl]amino]thioxomethyl]-3,4,5-methoxy-benzamide], the figure is 20 to 80%; as for `CCOc1cc(C(=O)NC(=O)Nc2cccc(NC(=O)c3ccccc3)c2)cc(OCC)c1OCC` [Compound 29, N-[[[3-(benzoylamino)phenyl]amino]oxomethyl]-3,4,5-ethoxy-benzamide], 20 to 80%; as for `COc1cc(C(=O)NC(=O)Nc2cccc(NC(=O)c3ccc4ccccc4c3)c2)cc(OC)c1OC` [Compound 16, N-[[[3-(2-naphthoylamino)phenyl]amino]oxomethyl]-3,4,5-methoxy-benzamide], 5 to 20%.

In turn, `COc1cc(C(=O)NC(=S)Nc2ccc(C)c(-c3nc4ccccc4[nH]3)c2)cc(OC)c1OC` [Compound 56, N-(3-(1H-benzo[d]imidazol-2-yl)-4-methylphenylcarbamothioyl)-3,4,5-trimethoxybenzamide] displayed an inhibition at 10 µM of 20 to 80%. In the case of `CCOc1cc(C(=O)NC(=S)Nc2cccc(NC(=O)c3ccccc3)c2)cc(OCC)c1OCC` [Compound 23, N-[[[3-(benzoylamino)phenyl]amino]thioxomethyl]-3,4,5-ethoxy-benzamide], the inhibition at 10 µM was > 80% and the IC50 is 0.01 to 1 µM. `COc1cc(C(=O)NC(=O)Nc2ccc(Cl)c(NC(=O)c3ccccc3)c2)cc(OC)c1OC` [Compound 33, N-[[[4-chloro-3-(benzoylamino)phenyl]amino]oxomethyl]-3,4,5-methoxy-benzamide] showed an inhibition at 10 µM of 20 to 80%.

Molecule `O=C(NC(=S)Nc1cccc(NC(=O)c2ccccc2)c1)c1ccc2c(c1)OCCO2` [Compound 28, N-[[[3-(benzoylamino)phenyl]amino]thioxomethyl]-3,4-ethylenedioxo-benzamide] gave an inhibition at 10 µM of 5 to 20%.

`COc1ccc(NC(=O)c2cc(NC(=S)NC(=O)c3cc(OC)c(OC)c(OC)c3)ccc2Cl)cc1` [Compound 40] showed an inhibition at 10 µM of 20 to 80%. Same read-out and setting: the figure for `COc1cc(C(=O)NC(=S)Nc2ccc(C)c(NC(=O)c3ccccc3)c2)cc(OC)c1OC` [Compound 27, N-[[[4-methyl-3-(benzoylamino)phenyl]amino]thioxomethyl]-3,4,5-Methoxy-benzamide] is 20 to 80%. For `COc1cc(C(=O)NC(=S)Nc2cccc(NC(=O)c3ccncc3)c2)cc(OC)c1OC` [Compound 11, N-[[[3-(4-pyridocarboxylamino)phenyl]amino]thioxomethyl]-3,4,5-methoxy-benzamide], the inhibition at 10 µM is > 80%. Molecule `COc1cc(C(=O)NC(=S)Nc2cccc(NC(=O)c3ccc(-c4ccccc4)cc3)c2)cc(OC)c1OC` [Compound 5, N-[[[3-(4-phenyl-benzoylamino)phenyl]amino]thioxomethyl]-3,4,5-methoxy-benzamide] registered an inhibition at 10 µM of 20 to 80% and an IC50 of 0.01 to 1 µM. As for `COc1cc(C(=O)NC(=S)Nc2ccc(F)c(NC(=O)c3ccccc3)c2)cc(OC)c1OC` [Compound 24, N-[[[4-fluoro-3-(benzoylamino)phenyl]amino]thioxomethyl]-3,4,5-methoxy-benzamide], the inhibition at 10 µM was > 80%. Still for that read-out and setting: the figure for `COc1ccc(C(=O)NC(=O)Nc2cccc(NC(=O)c3ccccc3)c2)cc1` [Compound 49, N-[[[-3-(benzoylamino)phenyl]amino]oxomethyl]-4-methoxy-benzamide] is 20 to 80%. With `COc1cc(C(=O)NC(=S)Nc2cccc(NC(=O)C3CCCCC3)c2)cc(OC)c1OC` [Compound 8, N-[[[3-(-cyclohexylcarboxylamino)phenyl]amino]thioxomethyl]-3,4,5-methoxy-benzamide], the inhibition at 10 µM lay in the range of 20 to 80%. Same read-out and setting: the figure for `COc1cc(C(=O)NC(=S)Nc2cccc(NC(=O)C(C)C)c2)cc(OC)c1OC` [Compound 10, N-[[[3-(isopropoylcarboxylamino)phenyl]amino]thioxomethyl]-3,4,5-methoxy-benzamide] is 5 to 20%. Still for that read-out and setting: the figure for `COc1ccc(NC(=S)NC(=O)c2cc(OC)c(OC)c(OC)c2)cc1NC(=O)c1ccccc1` [Compound 26, N-[[[4-methoxy-3-(benzoylamino)phenyl]amino]thioxomethyl]-3,4,5-methoxy-benzamide] is 20 to 80%. As for `COc1cc(C(=O)NC(=S)Nc2cccc(NC(=O)c3ccc(Cl)cc3)c2)cc(OC)c1OC` [Compound 13, N-[[[3-(4-chloro-benzoylamino)phenyl]amino]thioxomethyl]-3,4,5-methoxy-benzamide], the inhibition at 10 µM is > 80% and the IC50 is 0.01 to 1 µM.

`COc1cc(OC)c(C(=O)NC(=O)Nc2cccc(NC(=O)c3ccccc3)c2)cc1OC` [Compound 48, N-[[[-3-(benzoylamino)phenyl]amino]oxomethyl]-2,4,5-methoxy-benzamide] registered an inhibition at 10 µM of 20 to 80% and an IC50 of 1 to 3 µM. For `COc1cc(C(=O)NC(=O)Nc2cccc(NC(=O)Nc3ccc(-c4ccccc4)cc3)c2)cc(OC)c1OC` [Compound 59, N-(3-(3-biphenyl-4-ylureido)phenylcarbamoyl)-3,4,5-trimethoxybenzamide], the inhibition at 10 µM was > 80%. Turning to `COc1cc(C(=O)NC(=S)Nc2ccc(Cl)c(C(=O)Nc3ccc(N(C)C)cc3)c2)cc(OC)c1OC` [Compound 39], the inhibition at 10 µM was > 80% and the IC50 was in the range of 1 to 3 µM.

Take `COc1cc(C(=O)NC(=S)Nc2cc(Cl)cc(NC(=O)c3ccccc3)c2)cc(OC)c1OC` [Compound 35, N-[[[5-chloro-3-(benzoylamino)phenyl]amino]thioxomethyl]-3,4,5-methoxy-benzamide]: the inhibition at 10 µM is 20 to 80%. `O=C(NC(=O)c1ccccc1)Nc1cccc(NC(=O)c2ccccc2)c1` [Compound 50, N-[[[-3-(benzoylamino)phenyl]amino]oxomethyl]-benzamide]: the inhibition at 10 µM is > 80%. The same measure, in the same setting: as for `COc1cc(C(=O)NC(=O)Nc2cccc(NC(=O)c3ccccc3)c2)cc2c1OCO2` [Compound 30, N-[[[3-(benzoylamino)phenyl]amino]oxomethyl]-3,4-methylenedioxy-5-methoxy-benzamide], the figure is 5 to 20%.
